What all share (assay type): cell-based, human
Test [1] concerns KRAS mutation CRC cells LoVo. The test can be described thus: Apoptosis, Annexin V/PI double staining. Conditions: 2.5 mM, 5 mM and 10 mM, 24 h. The procedure:
(§1) Annexin V/PI double staining was used on the KRAS wildtype cell SW48 and KRAS (G13D) mutation cells LoVo to detect the effect of metformin on the apoptosis of colorectal cancer cells.
(§2) 1) The cells were inoculated on a 6-well plate and subjected to adherence growth for 12 h, starvation treatment over the night, and treated with the addition of an agent for 24 h, then the cells were digested by EDTA-free trypsin and washed for once with PBS without immobilization.
(§3) 2) The cells were resuspended with the addition of 300 μl Binding Buffer, then 3 μl Annexin V-FITC and 3 μl Propidium Iodide (PI) were added and mixed well for incubation for 30 min in the dark at room temperature, then the cells were determined by a flow cytometry.
(§4) 3) Flow cytometry detection of antibodies: apoptosis kit (A211-02) was purchased from KeyGEN; the detection kit (558662) for cell cycle PI simple staining was purchased from BD company.

Test [2] relates to KRAS wildtype CRC cells SW48. Nature of the test: Apoptosis, Annexin V/PI double staining. Conditions: 2.5 mM, 5 mM and 10 mM, 24 h. On the procedure:
as §1, §2, §3, §4

The subject of test [3] is KRAS mutation CRC cells LoVo. The test can be described thus: Cell cycle, PI/RNase staining, flow cytometry. As to conditions: 24 h, FIG. 8C. The procedure: (§5) 1) The cells were inoculated onto a 6-well plate, and subjected to adherence growth for 12 h, then starvation treatment over the night, and treated with the addition of an agent for 24 h, then the cells were digested and washed for 3 times with PBS and centrifuged to discard supernatant; −20° C. pre-cooled 70% ethanol was added dropwise, and the cells were mixed well by vortex, and immobilized over the night at −20° C.
(§6) 2) The cells were horizontally centrifuged for 10 min at 2000 rpm to discard the supernatant; then the cells were washed with PBS for 2-3 times to remove the residual ethanol with centrifugation for 5 min each time.
(§7) 3) The cells were resuspended by 500 μL PI/RNase dyeing liquor, and incubated for 15 min in the dark, and put on a flow cytometry within 2 h for detection, and 488 nm wavelength was stimulated.
(§8) 4) FlowJo 7.6 software was used for graphing analysis.

The test system of test [4] is KRAS wildtype CRC cells SW48. The test can be described thus: Cell cycle, PI/RNase staining, flow cytometry. Conditions: 24 h, FIG. 8C. The procedure: as §5, §6, §7, §8
For orientation: A flow cytometer gives signals particle by particle.

The test system of test [5] is 4E-BP1 phosphorylation in LoVo cell line with knock-down KRAS protein. The test can be described thus: Western blot of signaling pathways. As to conditions: FIG. 9E. The procedure:
(§9) Western blot was used to detect the change of metformin on the related molecules of sroliferative signaling pathways MEK/ERK/cyclin D1/RB and PI3K/AKT/mTOR/4E-BP1, which clarifies the mechanism of metformin in inhibiting the proliferation of KRAS mutation CRC cells.
(§10) 1) Cells were inoculated on a culture dish and cultured to 60% of fusion degree, and treated with the addition of an agent for 24 h.
(§11) 2) Protein was collected, and washed with PBS for 3 times, then added with 100 μl 1 RSDS buffer solution (100 mmol/1 Tris-Cl pH6.8, 2% SDS, 10% glycerinum), and at this time, the cell lysis solution was sticky.
(§12) 3) The cell lysis solution was collected into a 0.5 ml centrifugal tube with a scraper, and cooked for 30 min at 100° C.
(§13) 4) The total protein extractive in the cells was subjected to protein quantification according to a BCA kit process (BIO-RAD company).
(§14) 5) The sample was treated according to a ratio of 9 μl denatured protein sample: 1 μl denatured buffer solution (β-mercaptoethanol (BME), 0.4% Bromphenol Blue), and boiled for 30 min at 100° C. for further use.
(§15) 6) A prepared SDS-PAGE gel (10% separation gel and 5% stacking gel) was taken; samples were added with 40 ug/well, and subjected gel electrophoresis for 30 min at 80V, and gel electrophoresis for 90 min at 120V. […]

Test [6] relates to cyclinD1/RB and AKT/mTOR/4E-BP1 signaling pathways in KRAS (G13D) mutation SW48 cell line. Nature of the test: Western blot of signaling pathways. As to conditions: FIG. 9D. On the procedure: as §9, §10, §11, §12, §13, §14, §15
(A western blot detects proteins with antibodies after separation by electrophoresis.)

Test [7] has as its system LoVo cell line with knock-down KRAS, TET1/2 interfered. The test can be described thus: Proliferation with TET1/2 interfered. As to conditions: MATE1 down-regulated once again, FIG. 16G.

Results on one molecule are retold here after patent US20220125877A1, “METHOD FOR TREATING COLORECTAL CANCER” (SUN YAT-SEN UNIVERSITY, priority 2019, published 2022).

Take `CN(C)C(=N)N=C(N)N` [metformin]: the apoptosis result in test [1] and in test [2] was “do not accelerate the apoptosis” each time. Also, the “ratio of phase S cells” value in test [3] is “reduces”. In addition, in test [3] (concentration dependent), the “ratio of G1 cells” value is “dependently increases”. In addition, the “cell cycle distribution (G1, phase S)” value in test [4] is “no obvious effect”. In test [5], the “inhibiting effect on LoVo protein and 4E-BP1 phosphorylation after interference of KRAS (G13D) expression” value was “down-regulate the inhibiting effect”. Also, the “change of the cyclinD1/RB and AKT/mTOR/4E-BP1 signaling pathways” value in test [6] was “consistent with the KRAS mutation CRC cells LoVo”. In addition, the “inhibiting effect on proliferation of tumor cells with TET1/2 interfered” value in test [7] is reported as “accelerating the inhibiting effect”.
